Laboratory results reported in PubChem BioAssay AID1963844 (Molecular Pharmacology Branch, DTP, NCI, 2024).
“And” between values parts separate entries of the source, which are not always exact repeats. Identical values can stand only once.

Tested on: 422866-222-R5-J1-PDC complex spheroid viability
Assay: Anticancer human tumor 422866-222-R5-J1-PDC patient-derived pancreatic adenocarcinoma cell line growth inhibition [POLQ]
Settings: for viability, T/C: stronger effect = lower value
Procedure: Multicellular complex tumor spheroid response to Polymerase (POL) inhibitors (novobiocin, ART-558, RP6685) in combination with a variety of drugs and investigational agents in selected tumor cell lines
The POL inhibitors (novobiocin, ART-558, and RP6685) were evaluated both individually and in combination with standard of care and investigational anticancer small molecules within a complex spheroid model of solid tumors. . Complex spheroids include a stromal component modeled by human endothelial cells (HUVEC) and fibroblasts modeled by human mesenchymal stem cells (MSCs). The concentration ranges selected for each drug and investigational agent were based upon clinically achievable concentrations if the clinical Cmax of the agent was known.
Compounds. The drugs and investigational agents: novobiocin (NSC847541), ART-558 (NSC835418), RP-6685 (NSC848927), peposertib (NSC802822), ceralasertib (NSC780249), elimusertib (NSC800525), camonsertib (NSC841442), AZD-1390 (NSC803789), olaparib (NSC753686), talazoparib (NSC767125), rucaparib (NSC756644), sotorasib (NSC818433), MRTX-1133 (NSC836407), SN-38 (NSC673596), topotecan (NSC609699), epotoside (NSC141540), doxorubicin (NSC123127), gemcitabine (NSC613327), 5-fluorouracil (NSC19893), paclitaxel (NSC125973), vemurafenib (NSC761431), MSA-2 (NSC828583), SN-011 (NSC837082), adavosertib (NSC754352), prexasertib (NSC758257), carboplatin (NSC241240) and oxaliplatin (NSC266046), were obtained from the National Cancer Institute (NCI) Developmental Therapeutics Program Chemical Repository (21). The FDA-approved anticancer drug set is available from the Developmental Therapeutics Program at https://dtp.cancer.gov/organization/dscb/obtaining/. […] The stock solutions were prepared in dimethyl sulfoxide (DMSO, Sigma-Aldrich, St. Louis, MO, cat. D2650), except for the platinum compounds which were prepared in saline (Quality Biological, Gaithersburg, MD, cat. 114-055-101), at 800-fold the tested concentration and stored at -70 degrees C prior to their use. All drugs and investigational agents were tested over a range starting from a high concentration at or near the clinical Cmax and decreasing in half-log increments. If the clinical Cmax for an agent had not been determined, the highest concentration tested was 10 microM, except for SN-38, which was tested at a high concentration of 1 microM.
Cell Culture. All cells were maintained in an incubator at 37 degrees C and 5% CO2 with 95% humidity. The PDC lines were cultured according to standard operating procedures established by the NCI PDMR (https://pdmr.cancer.gov). Table 3 of the manuscript, lists the cell lines along with the number of the three cell types plated to form the mct-spheroids and media for tumor cell growth. After thawing, all PDC lines, except 997537-175-T-J1-PDC and 415267-285-R-J2-PDC, were cultured in Matrigel-coated flasks prepared with a working solution of 1X Ham's F-12 nutrient mix, without supplementation (Thermo Fisher Scientific, cat. 11765054), 100 U/mL penicillin-streptomycin (Thermo Fisher Scientific, cat. 15140122), and 2.5% Matrigel (Corning Inc., Corning, NY, cat. 354248) for the first three passages. The two PDC lines 997537-175-T-J1-PDC and 415267-285-R-J2-PDC were cultured on uncoated flasks. The 857933-349-R-J2-PDC line was cultured in 6C/Colon 1B media containing advanced DMEM/F-12 (Thermo Fisher Scientific, cat. 12634028), 10 mM HEPES (Thermo Fisher Scientific, cat. 15630080), 1X GlutaMAX supplement (Thermo Fisher Scientific, cat. 35050061), 0.1 mg/mL primocin (InvivoGen, San Diego, CA, cat. ant-pm-2), 10% defined fetal bovine serum, heat inactivated (HyClone Laboratories Inc., Logan, UT, cat. SH30070.03HI), 50% L-WRN conditioned media (ATCC, cat. CRL-3276), 1.25 mM N-Acetyl-L-cysteine (Sigma-Aldrich, cat. A9165), 10 mM nicotinamide (Sigma-Aldrich, cat. N0636), 1X B-27 supplement (Thermo Fisher Scientific, cat. 17504044), 1X N-2 supplement (Thermo Fisher Scientific, cat. […]
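Also: spheroids exposed to compounds for one week before readout.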
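For viability, T/C in this document: percent of DMSO vehicle wells luminescence so 100% = untreated viability.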

For CC1COCCN1c1cc(C2(S(C)(=N)=O)CC2)nc(-c2ccnc3[nH]ccc23)n1 (stereo unspecified) + COC1C(OC(N)=O)C(O)C(Oc2ccc3c(O)c(NC(=O)c4ccc(O)c(CC=C(C)C)c4)c(=O)oc3c2C)OC1(C)C, which IC50 (curve of first compound, second compound 0.0316 µM) is on record?
The IC50 was 2.67 µM.

What about the IC50 (curve of first compound, second compound 0.1 µM) of the same compound?
The IC50 was 2.91 µM.

And the IC50 (curve of first compound, second compound 0.316 µM)?
The IC50 was 2.83 µM.

And the IC50 (curve of first compound, second compound 1 µM)?
The IC50 was 2.94 µM.

What about the IC50 (curve of first compound, second compound 3.16 µM) of the same compound?
The IC50 was 2.56 µM.

What about the IC50 (curve of first compound, second compound 10 µM) of the same compound?
Its IC50 is 4.12 µM.

What about the viability, T/C (second compound 0.0316 µM, first compound 0.0316 µM) of the same compound?
Its viability, T/C is 102%.

And the viability, T/C (second compound 0.0316 µM, first compound 0.1 µM)?
Its viability, T/C is 111%.

And the viability, T/C (second compound 0.0316 µM, first compound 0.316 µM)?
Its viability, T/C is 88.4%.

What about the viability, T/C (second compound 0.0316 µM, first compound 1 µM) of the same compound?
Its viability, T/C is 75.6%.

What about the viability, T/C (second compound 0.0316 µM, first compound 3.16 µM) of the same compound?
Its viability, T/C is 43.9%.

And the viability, T/C (second compound 0.0316 µM, first compound 10 µM)?
Its viability, T/C is 34.1%.

And the viability, T/C (second compound 0.1 µM, first compound 0.0316 µM)?
The viability, T/C was 104%.

What about the viability, T/C (second compound 0.1 µM, first compound 0.1 µM) of the same compound?
The viability, T/C was 103%.

And the viability, T/C (second compound 0.1 µM, first compound 0.316 µM)?
Its viability, T/C is 91.6%.

What about the viability, T/C (second compound 0.1 µM, first compound 1 µM) of the same compound?
Its viability, T/C is 75.4%.

And the viability, T/C (second compound 0.1 µM, first compound 3.16 µM)?
Its viability, T/C is 46.6%.

What about the viability, T/C (second compound 0.1 µM, first compound 10 µM) of the same compound?
The viability, T/C was 34.8%.

And the viability, T/C (second compound 0.316 µM, first compound 0.0316 µM)?
Its viability, T/C is 95.8%.

And the viability, T/C (second compound 0.316 µM, first compound 0.1 µM)?
The viability, T/C was 91%.

What about the viability, T/C (second compound 0.316 µM, first compound 0.316 µM) of the same compound?
The viability, T/C was 92.5%.

And the viability, T/C (second compound 0.316 µM, first compound 1 µM)?
The viability, T/C was 71.8%.

What about the viability, T/C (second compound 0.316 µM, first compound 3.16 µM) of the same compound?
Its viability, T/C is 48%.

And the viability, T/C (second compound 0.316 µM, first compound 10 µM)?
Its viability, T/C is 44.1%.

What about the viability, T/C (second compound 1 µM, first compound 0.0316 µM) of the same compound?
The viability, T/C was 91.3%.

And the viability, T/C (second compound 1 µM, first compound 0.1 µM)?
The viability, T/C was 97.7%.

What about the viability, T/C (second compound 1 µM, first compound 0.316 µM) of the same compound?
The viability, T/C was 101%.

And the viability, T/C (second compound 1 µM, first compound 1 µM)?
Its viability, T/C is 69.4%.

What about the viability, T/C (second compound 1 µM, first compound 3.16 µM) of the same compound?
Its viability, T/C is 54.9%.

What about the viability, T/C (second compound 1 µM, first compound 10 µM) of the same compound?
The viability, T/C was 39.8%.

What about the viability, T/C (second compound 3.16 µM, first compound 0.0316 µM) of the same compound?
Its viability, T/C is 107%.

What about the viability, T/C (second compound 3.16 µM, first compound 0.1 µM) of the same compound?
The viability, T/C was 99%.

What about the viability, T/C (second compound 3.16 µM, first compound 0.316 µM) of the same compound?
Its viability, T/C is 104%.

And the viability, T/C (second compound 3.16 µM, first compound 1 µM)?
Its viability, T/C is 77.7%.

And the viability, T/C (second compound 3.16 µM, first compound 3.16 µM)?
The viability, T/C was 44.4%.

What about the viability, T/C (second compound 3.16 µM, first compound 10 µM) of the same compound?
Its viability, T/C is 39.8%.

And the viability, T/C (second compound 10 µM, first compound 0.0316 µM)?
Its viability, T/C is 97.1%.

What about the viability, T/C (second compound 10 µM, first compound 0.1 µM) of the same compound?
The viability, T/C was 99.5%.

What about the viability, T/C (second compound 10 µM, first compound 0.316 µM) of the same compound?
The viability, T/C was 112%.

What about the viability, T/C (second compound 10 µM, first compound 1 µM) of the same compound?
Its viability, T/C is 75.5%.

What about the viability, T/C (second compound 10 µM, first compound 3.16 µM) of the same compound?
The viability, T/C was 58.7%.

And the viability, T/C (second compound 10 µM, first compound 10 µM)?
Its viability, T/C is 33%.

O=C(Nc1ccc(O)c(NS(=O)(=O)c2ccc(F)cc2)c1)c1ccc(-c2ccccc2)cc1 was tested. Which viability, T/C (compound 0.0316 µM) did it give?
The viability, T/C was 110% and 86.1% and 107%.

What about the viability, T/C (compound 0.1 µM) of the same compound?
The viability, T/C was 79.5% and 94.1% and 96.3%.

And the viability, T/C (compound 0.316 µM)?
The viability, T/C was 78.5% and 81.6% and 79.1%.

And the viability, T/C (compound 1 µM)?
Its viability, T/C is 90.2% and 93.1% and 97.9%.

And the viability, T/C (compound 3.16 µM)?
Its viability, T/C is 90% and 107% and 97.1%.

What about the viability, T/C (compound 10 µM) of the same compound?
The viability, T/C was 106% and 113% and 128%.

What about the IC50 (curve of compound) of the same compound?
The IC50 was over 10 µM.

How did the viability, T/C (compound 0.0316 µM) turn out when CC1COCCN1c1cc(C2(S(C)(=N)=O)CC2)nc(-c2ccnc3[nH]ccc23)n1 (stereo unspecified) was run?
The viability, T/C was 92.3% and 91.5% and 116%.

What about the viability, T/C (compound 0.1 µM) of the same compound?
The viability, T/C was 101% and 93.1% and 100%.

What about the viability, T/C (compound 0.316 µM) of the same compound?
The viability, T/C was 93.4% and 95.6% and 96.3%.

What about the viability, T/C (compound 1 µM) of the same compound?
Its viability, T/C is 74% and 72.6% and 85.2%.

And the viability, T/C (compound 3.16 µM)?
The viability, T/C was 49.9% and 44.6% and 41.7%.

What about the viability, T/C (compound 10 µM) of the same compound?
The viability, T/C was 39.9% and 30.8% and 42%.

And the IC50 (curve of compound)?
Its IC50 is 3.01 µM and 2.46 µM and 2.64 µM.
